Target: T1, Recombinant ι-CgsA (Pseudoalteromonas carrageenovora, UniProt A0A2K4X859)
T1 construct: gene PCARR_a1089; without signal peptide (cleavage Ala22/Gln23 predicted in the Q3IKL4 ortholog), N-terminal 6 His-tag, pFO4 vector, E. coli BL21(DE3); primers for cloning deduced from the P. haloplanktis TAC 125 gene
Assay: methylumbelliferone release, absorbance at […] nm; hyperbolic regression
Assay type: biochemical
Settings: 35 °C, pH 8.3, 50 mM Tris-HCl, 200 mM NaCl; MUFS 5.2 to 206.5 μM; preliminary; read-out: Apparent Km

T1 sequence (A0A2K4X859 entry or part of it): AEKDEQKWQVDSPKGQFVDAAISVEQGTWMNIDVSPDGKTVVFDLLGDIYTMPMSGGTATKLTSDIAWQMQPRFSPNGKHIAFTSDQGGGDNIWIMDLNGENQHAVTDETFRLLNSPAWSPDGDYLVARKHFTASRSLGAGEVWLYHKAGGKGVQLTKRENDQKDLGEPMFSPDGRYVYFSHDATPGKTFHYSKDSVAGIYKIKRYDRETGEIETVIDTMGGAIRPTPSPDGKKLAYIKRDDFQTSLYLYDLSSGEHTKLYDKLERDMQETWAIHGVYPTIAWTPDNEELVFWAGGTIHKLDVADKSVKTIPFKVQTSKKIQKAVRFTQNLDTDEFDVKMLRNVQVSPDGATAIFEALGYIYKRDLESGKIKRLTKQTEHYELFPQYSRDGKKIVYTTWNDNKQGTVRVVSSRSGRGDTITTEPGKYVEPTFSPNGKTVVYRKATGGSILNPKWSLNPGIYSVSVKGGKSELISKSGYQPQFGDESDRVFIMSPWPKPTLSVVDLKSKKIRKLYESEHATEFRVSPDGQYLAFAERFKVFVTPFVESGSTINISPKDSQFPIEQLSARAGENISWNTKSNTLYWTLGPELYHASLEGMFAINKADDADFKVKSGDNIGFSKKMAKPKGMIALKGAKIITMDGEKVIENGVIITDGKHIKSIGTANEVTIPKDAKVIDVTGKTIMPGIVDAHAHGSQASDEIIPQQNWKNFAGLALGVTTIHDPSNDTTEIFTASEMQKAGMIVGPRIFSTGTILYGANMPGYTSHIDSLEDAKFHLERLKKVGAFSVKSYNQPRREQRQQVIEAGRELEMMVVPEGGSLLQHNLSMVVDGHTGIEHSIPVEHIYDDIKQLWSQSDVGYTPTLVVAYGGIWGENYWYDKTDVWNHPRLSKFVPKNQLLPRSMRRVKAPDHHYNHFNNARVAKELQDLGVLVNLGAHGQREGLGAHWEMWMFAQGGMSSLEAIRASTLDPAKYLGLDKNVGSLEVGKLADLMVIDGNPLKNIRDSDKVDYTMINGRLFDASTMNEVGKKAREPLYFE

Km: 13.4 ± 4.9 µM
SMILES: Cc1cc(=O)oc2cc(OS(=O)(=O)O)ccc12 [MUFS]
